According to patent publication US20260183274A1, “PDK1 REGULATORY COMPOUND AND COMPOSITION CONTAINING THE SAME” (PROVIBIO CO., LTD., priority 2024, published 2026):

System: T cells isolated from mouse spleens
Assay: T cell proliferation inhibition (CFSE flow cytometry, anti-CD3/anti-CD28 stimulation)
Assay type: cell-based
Details: mouse spleen T cells, 3 days; for inhibition at 0.01 µM / inhibition at 0.1 µM / inhibition at 1 µM / inhibition at 10 µM / inhibition at 30 µM / inhibition at 50 µM: Mus musculus, T-cell, 72 h, read-out: Proliferation inhibition rate (%)
Method: To verify the T cell proliferation inhibitory effect of the compounds according to the present invention, the following experiment was performed based on flow cytometry analysis using carboxyfluorescein diacetate succinimidyl ester (CFSE), a fluorescent dye that binds to intracellular molecules via covalent bonds.
Spleens were extracted from 7-week-old C57BL/6 mice, ground, and then separated into single cells using a strainer (40 μm pore size, SPL). Red blood cells were removed using ACK (Ammonium-Chloride-Potassium) lysis buffer to isolate white blood cells.
Finally, using a MACS Magnetic Stand and LS column, T cells were isolated from the spleen.
The T cells isolated from the spleen were resuspended in 1 mL of free medium (RPMI-1640+200 U/mL penicillin+200 μg/mL streptomycin), and 0.3 μL of CFSE (10 mM) was added. The mixture was incubated at 37° C. for 5 minutes.
Free medium (10 mL) was added to stop the reaction, and the cells were centrifuged to obtain the cell pellet.
RPMI 1640 medium containing 10% FBS, 100 U/mL penicillin, 100 μg/mL streptomycin, and resuspended the cells. The cells were then seeded into a 96-well plate at a density of 2×10^5 cells per well and activated with CD3 and CD28 antibodies (0.5 μg/mL each) to activate T cells.
The compound diluted in DMSO was added at concentrations of 10 nM, 100 nM, 1 μM, 10 μM, 30 μM, and 50 μM, with three wells per concentration, and cultured at 37° C. and 5% CO2 for three days. The cells were then analyzed using a FACS Canto instrument.
The proliferation inhibition rate (%) was calculated using the following formula: […]

Structure (SMILES) | inhibition at 0.01 µM (compound 10 nM) | inhibition at 0.1 µM (compound 100 nM) | inhibition at 1 µM (compound 1 μM) | inhibition at 10 µM (compound 10 μM) | inhibition at 30 µM (compound 30 μM) | inhibition at 50 µM (compound 50 μM) | Proliferation inhibition rate (%) (compound 10 nM) | Proliferation inhibition rate (%) (compound 100 nM) | Proliferation inhibition rate (%) (compound 1 μM) | Proliferation inhibition rate (%) (compound 10 μM) | Proliferation inhibition rate (%) (compound 30 μM) | Proliferation inhibition rate (%) (compound 50 μM)
CCNCCCCCCCCCCCCNC(=O)c1cccnc1N [Compound 98, 2-amino-N-(12-(ethylamino)dodecyl)nicotinamide] | -4.82% | -3.95% | 100% | 100% | 100% | 100% |  |  |  |  |  | 
Nc1ncccc1C(=O)NCCCCCCCCCCCCN1CCN(C(=O)C2CC2)CC1 [Compound 99, 2-amino-N-(12-(4-(cyclopropanecarbonyl)piperazin-1-yl)dodecyl)nicotinamide] | -12.1% | 100% | 100% | 100% | 100% | 100% |  |  |  |  |  | 
CC(C)(C)OC(=O)NC1CCN(CCCCCCCCCCCCNC(=O)c2cccnc2N)CC1 [Compound 101, tert-Butyl (1-(12-(2-aminonicotinamido)dodecyl)piperidin-4-yl) carbamate] |  |  |  |  |  |  | −0.15% | 100.00% | 100.00% | 100.00% | 100.00% | 100.00%
CC1(C)CCN(CCCCCCCCCCCCNC(=O)c2cccnc2N)CC1 [Compound 102, 2-Amino-N-(12-(4,4-dimethylpiperidin-1-yl)dodecyl)nicotinamide] | -4.53% | 100% | 100% | 100% | 100% | 100% |  |  |  |  |  | 
CCOC(=O)C1CCN(CCCCCCCCCCCCNC(=O)c2cccnc2N)CC1 [Compound 103, Ethyl 1-(12-(2-aminonicotinamido)dodecyl)piperidine-4-carboxylate] | -6.43% | 100% | 100% | 100% | 100% | 100% |  |  |  |  |  | 
CC(C)N1CCN(CCCCCCCCCCCCNC(=O)c2cccnc2N)CC1 [Compound 104, 2-Amino-N-(12-(4-isopropylpiperazin-1-yl)dodecyl) nicotinamide] |  |  |  |  |  |  | 100.00% | 100.00% | 100.00% | 100.00% | 100.00% | 100.00%
Cc1nn(CCCCCCCCCCCCNC(=O)c2cccnc2N)cc1Br [Compound 105, 2-Amino-N-(12-(4-bromo-3-methyl-1H-pyrazol-1-yl)dodecyl)nicotinamide] | 6.73% | 8.33% | 38.9% | 100% | 100% | 100% |  |  |  |  |  | 
Nc1ncccc1C(=O)NCCCCCCCCCCCCn1ccc2ccc(I)cc21 [Compound 106, 2-Amino-N-(12-(6-iodo-1H-indol-1-yl)dodecyl)nicotinamide] | 0.44% | -1.9% | 0.44% | 100% | 100% | 100% |  |  |  |  |  | 
Nc1ncccc1C(=O)NCCCCCCCCCCCCN1CCC(C(F)F)CC1 [Compound 107, 2-Amino-N-(12-(4-(difluoromethyl)piperidin-1-yl)dodecyl)nicotinamide] | -35.2% | 100% | 100% | 100% | 100% | 100% |  |  |  |  |  | 
Nc1ncccc1C(=O)NCCCCCCCCCCCCN1CCC2(CC1)CC2 [Compound 108, N-(12-(6-Azaspiro[2.5]octan-6-yl)dodecyl)-2-aminonicotinamide] | 0.88% | 28.5% | 100% | 100% | 100% | 100% |  |  |  |  |  | 
Nc1ncccc1C(=O)NCCCCCCCCCCCCn1ccc2c(Cl)c(I)cnc21 [Compound 109, 2-Amino-N-(12-(4-chloro-5-iodo-1H-pyrrolo[2,3-b]pyridin-1-yl)dodecyl)nicotinamide] | 0.15% | 8.48% | 20.9% | 100% | 100% | 100% |  |  |  |  |  | 
C[C@@H]1CN(CCCCCCCCCCCCNC(=O)c2cccnc2N)C[C@H](C)O1 [Compound 110, 2-amino-N-(12-((2S,6R)-2,6-dimethylmorpholino)dodecyl)nicotinamide] | -36.7% | 100% | 100% | 100% | 100% | 100% |  |  |  |  |  | 
CC(C)(C)OC(=O)N1CCN(CCCCCCCCCCCCNC(=O)c2cccnc2N)CC1 [Compound 111, tert-butyl-4-(12-(2-aminonicotinamido)dodecyl) piperazine-1-carboxylate] |  |  |  |  |  |  | 0.00% | 100.00% | 100.00% | 100.00% | 100.00% | 100.00%
Nc1ncccc1C(=O)NCCCCCCCCCCCCN1CCN(CC2CCCCC2)CC1 [Compound 113, 2-amino-N-(12-(4-(cyclohexylmethyl)piperazin-1-yl)dodecyl)nicotinamide] | 11.1% | 100% | 100% | 100% | 100% | 100% |  |  |  |  |  | 
Nc1ncccc1C(=O)NCCCCCCCCCCCCN1CCC(F)(F)CC1 [Compound 114, 2-amino-N-(12-(4,4-difluoropiperidin-1-yl)dodecyl)nicotinamide] | -18.3% | 26.2% | 100% | 100% | 100% | 100% |  |  |  |  |  | 
Nc1ncccc1C(=O)NCCCCCCCCCCCCN1CCC(F)CC1 [Compound 115, 2-amino-N-(12-(4-fluoropiperidin-1-yl)dodecyl)nicotinamide] | -11.4% | 100% | 100% | 100% | 100% | 100% |  |  |  |  |  | 
COC(=O)C1CCN(CCCCCCCCCCCCNC(=O)c2cccnc2N)C1 (stereo not drawn) [Compound 116, Methyl-1-(12-(2-aminonicotinamido)dodecyl) pyrrolidine-3-carboxylate] |  |  |  |  |  |  | −1.90% | 26.17% | 100.00% | 100.00% | 100.00% | 100.00%
CC(C)(C)OC(=O)N[C@@H]1CCCN(CCCCCCCCCCCCNC(=O)c2cccnc2N)C1 [Compound 117, tert-butyl-(R)-(1-(12-(2-aminonicotinamido)dodecyl)piperidin-3-yl) carbamate] |  |  |  |  |  |  | −15.79% | 100.00% | 100.00% | 100.00% | 100.00% | 100.00%
CN1CCN(CCCCCCCCCCCCNC(=O)c2cccnc2Cl)CC1 [Compound 118, 2-chloro-N-(12-(4-methylpiperazin-1-yl)dodecyl)nicotinamide] | 4.24% | 4.82% | 12.6% | 34.5% | 88.6% | 100% |  |  |  |  |  | 
Nc1ncccc1C(=O)NCCCCCCCCCCCCN1CCOC1=O [Compound 127, 2-amino-N-(12-(2-oxooxazolidin-3-yl)dodecyl) nicotinamide] |  |  |  |  |  |  | −2.24% | 10.30% | 15.07% | 100.00% | 100.00% | 100.00%
Nc1ncccc1C(=O)NCCCCCCCCCCCCNC1CCOC1 (stereo not drawn) [Compound 128, 2-amino-N-(12-((tetrahydrofuran-3-yl)amino)dodecyl) nicotinamide] |  |  |  |  |  |  | −7.16% | 100.00% | 100.00% | 100.00% | 100.00% | 100.00%
